Assay: xn = mol fraction of the nth substance listed
Settings: 101 kPa, Liquid

OCCOCCO [diethylene glycol] + CN(C)C=O
Settings | kinematic viscosity, 298.15 K [m2/s] | kinematic viscosity, 303.15 K [m2/s] | kinematic viscosity, 308.15 K [m2/s] | kinematic viscosity, 313.15 K [m2/s] | kinematic viscosity, 318.15 K [m2/s] | mass density, 298.15 K [kg/m3] | mass density, 303.15 K [kg/m3] | mass density, 308.15 K [kg/m3] | mass density, 313.15 K [kg/m3] | mass density, 318.15 K [kg/m3]
x2 = 0 | 2.76e-05 | 2.13e-05 | 1.68e-05 | 1.45e-05 | 1.12e-05 | 1113 | 1109.2 | 1106.1 | 1103 | 1099.3
x2 = 0.0714 | 1.96e-05 | 1.53e-05 | 1.19e-05 | 1.07e-05 | 8.43e-06 | 1104.1 | 1100 | 1096.7 | 1093.4 | 1089.5
x2 = 0.1393 | 1.57e-05 | 1.24e-05 | 9.67e-06 | 8.49e-06 | 6.68e-06 | 1094.9 | 1090.8 | 1087.3 | 1083.9 | 1079.8
x2 = 0.2041 | 1.26e-05 | 1.01e-05 | 8.08e-06 | 7.39e-06 | 5.77e-06 | 1085.9 | 1081.9 | 1078.2 | 1074.6 | 1070.3
x2 = 0.2683 | 1.02e-05 | 8.29e-06 | 6.7e-06 | 6.18e-06 | 4.88e-06 | 1076.7 | 1072.6 | 1068.7 | 1065.1 | 1060.7
x2 = 0.3266 | 8.33e-06 | 6.84e-06 | 5.59e-06 | 5.2e-06 | 4.16e-06 | 1068.1 | 1063.9 | 1059.9 | 1056.2 | 1051.7
x2 = 0.3834 | 6.84e-06 | 5.68e-06 | 4.69e-06 | 4.4e-06 | 3.54e-06 | 1059.4 | 1055.2 | 1051 | 1047.3 | 1042.7
x2 = 0.4384 | 5.66e-06 | 4.76e-06 | 3.98e-06 | 3.74e-06 | 3.06e-06 | 1050.9 | 1046.5 | 1042.2 | 1038.5 | 1033.9
x2 = 0.4917 | 4.71e-06 | 4e-06 | 3.38e-06 | 3.2e-06 | 2.64e-06 | 1042.3 | 1037.9 | 1033.5 | 1029.7 | 1024.9
x2 = 0.5429 | 3.94e-06 | 3.38e-06 | 2.88e-06 | 2.75e-06 | 2.29e-06 | 1033.8 | 1029.4 | 1024.8 | 1021 | 1016.2
x2 = 0.5865 | 3.4e-06 | 2.93e-06 | 2.53e-06 | 2.41e-06 | 2.03e-06 | 1026.4 | 1022 | 1017.3 | 1013.4 | 1008.6
x2 = 0.6394 | 2.83e-06 | 2.47e-06 | 2.16e-06 | 2.07e-06 | 1.76e-06 | 1017.2 | 1012.7 | 1007.9 | 1004 | 999.1
x2 = 0.6819 | 2.44e-06 | 2.15e-06 | 1.89e-06 | 1.82e-06 | 1.56e-06 | 1009.5 | 1005 | 1000.1 | 996.2 | 991.2
x2 = 0.7294 | 2.08e-06 | 1.85e-06 | 1.64e-06 | 1.59e-06 | 1.37e-06 | 1000.7 | 996.1 | 991.1 | 987.1 | 982.1
x2 = 0.7721 | 1.8e-06 | 1.62e-06 | 1.44e-06 | 1.39e-06 | 1.22e-06 | 992.5 | 987.9 | 982.8 | 978.6 | 973.6
x2 = 0.813 | 1.57e-06 | 1.42e-06 | 1.28e-06 | 1.23e-06 | 1.09e-06 | 984.5 | 979.7 | 974.5 | 970.3 | 965.2
x2 = 0.8531 | 1.38e-06 | 1.25e-06 | 1.14e-06 | 1.1e-06 | 9.94e-07 | 976.4 | 971.5 | 966.3 | 962.1 | 956.9
x2 = 0.891 | 1.22e-06 | 1.12e-06 | 1.03e-06 | 9.92e-07 | 8.99e-07 | 968.5 | 963.6 | 958.3 | 954.1 | 948.9
x2 = 0.9288 | 1.08e-06 | 1e-06 | 9.23e-07 | 8.88e-07 | 8.16e-07 | 960.2 | 955.4 | 950 | 945.8 | 940.7
x2 = 0.9648 | 9.67e-07 | 9.04e-07 | 8.37e-07 | 8.06e-07 | 7.44e-07 | 952.2 | 947.6 | 942.3 | 937.9 | 932.6

Reference: the NIST ThermoML archive (doi:10.1016/j.fluid.2014.04.019)
